Data taken from patent US20070275100A1, “Use of gaseous nitric oxide as an anti-cancer agent” (priority 1998, published 2007).

Tests used:
[1] = tested on: HTB-58; experiment: MTS cell proliferation assay, 25,000 ppm gNO (Example 4), HTB-58; assay type: cell-based, human
Source text: (§1) The purpose of this example is to illustrate the tumorcidal activity of high-dosage gNO. We examined the cellular sensitivity to 25,000 ppm of gNO on 5 non-small cell lung cancer (NSCLC) cells lines by an MTS cell proliferation assay.
(§2) Human lung cancer cell lines A549, NCI-H23, NCI-H460, HTB-58, H2170, and H441 (commercially available from American Type Culture Collection (“ATCC”), Manassas, Va.) were maintained in culture medium recommended by ATCC. All media were supplemented with 1% penicillin/streptomycin and 10% fetal bovine serum (commercially available from Invitrogen Gibco-BRL, Burlington, Ontario, Canada). […]
(§3) After 24 hours, the A549, NCI-H23, NCI-H460, HTB-58, H2170 and H441 cells were treated with 25,000 ppm gNO or air (control) for 1 minute, 3 minutes, 6 minutes, 9 minutes, 10 minutes, 20 minutes, and 30 minutes. Immediately following treatment, the viability of the cells was determined using a colorimetric MTS (3-(4,5-dimethylthiazol-2-yl)-5-(3-carboxymethoxyphenyl)-2-(4-sulfophenyl)-2H-tetrazolium, inner salt) cell proliferation assay (commercially available as the CellTiter 960 Aqueous One Solution Cell Proliferation Assay (MTS) from Promega, Madison, Wis., USA) according to the manufacturer's protocol. […] Absorbance was measured at 490 nm for each well using a micro-plate reader (commercially available from Dynex Technologies, Chantilly, Va., USA). […]

[2] = tested on: Staphylococcus aureus; experiment: High dose gNO on Staphylococcus aureus plated on blood agar (Example 2); assay type: cell-based; details: 25,000 ppm gNO
Source text: The purpose of this example is to observe the possibility of a novel bactericidal high dose (25,000 ppm) effect of gaseous nitric oxide (gNO) on an ATCC strain of Staphylococcus aureus plated on a blood agar media and determine a time effect of this dosage.
A closed environment treatment chamber was used (see, “A direct nitric oxide gas delivery system for bacterial and mammalian cell cultures,” A. Ghaffari, D. H. Neil, A. Ardakani, J. Road, A. Ghahary, C. C. Miller. Nitric Oxide 12(3):129-140, 2005, herein incorporated by reference in its entirety). The following steps were performed: • 1. Calibrated the AeroNOx analyzer as per standard procedure. • 2. Calibrated the closed environment treatment chamber as per standard procedure. • 3. In a 50 mL tube, known Staphylococcus aureus bacteria in 10 mL Nutrient Broth was grown overnight or for about 12 hours in a shaker incubator. • 4. Measured optical density of grown Staphylococcus aureus using a spectrophotometer set at 600 nm. Used original nutrient broth as a blank. O.D. should be 1.0±10%. • 5. Turned on closed environment treatment chamber. • 6. Labeled three plates: Air, NO+1 minute, NO+3 minutes. • 7. Immersed a sterile cotton swab into the bacterial mixture in the 50 mL tube and shaked off excess liquid. • 8. Swiped one plate entirely in two directions with the swab. • 9. Repeated steps 7-8 using the cotton swab for the remaining […] plates. • 10. Using clean technique, utilized the device to administer either air or 25,000 ppm gNO at a fixed distance and flow towards the inoculated agar media. The agar plate was enclosed in an isolated plastic box with lid. A micropipette through which the gas flowed was affixed to the box lid. The box lid was sealed through the use of plastic wrap. The micropipette was in fluid communication with the gaseous mixing manifold in order to deliver the specified concentrations. • 11. Placed the three treated plates into the laboratory incubator. • 12. Removed plates after 8 hours and placed in a 37° C. incubator for 12-16 hours. • 13. After incubation, recorded results with digital pictures. • 14. Sealed plates with paraffin and refrigerated for storage.

[3] = tested on: A549; experiment: MTS cell proliferation assay, 25,000 ppm gNO (Example 4), A549; assay type: cell-based, human
Source text: as §1, §2, §3

[4] = tested on: bacteria that cause nosocomial pneumonia in the intensive care unit; details: continuous in vitro exposure to 200 ppm gNO; cited from earlier work

Structure (SMILES): [N]=O [gNO, nitric oxide]
- IC50 (exposure time) [1]: about 7 minutes
- effect on the growth of S. aureus ([2]; 1 minute): profound inhibitory effect
- plate appearance after incubation (FIG. 4) ([2]; 1 minute of exposure): the plate still shows signs of the S. aureus
- effect on the growth of S. aureus ([2]; 3 minutes): possible cidal effect
- plate appearance after incubation (FIG. 5) ([2]; 3 minutes of exposure): the plate shows no signs of the S. aureus
- IC50 (exposure time) [3]: about 3 minutes
- time to cytocidal effect [4]: ≤ 5 h
